Measured values reported in ChEMBL document CHEMBL4823305, “Design, synthesis and antibacterial evaluation of novel 3-O-substituted 15-membered azalides possessing 1,2,3-triazole side chains” (2021).
In brackets after ≈: the same amount, converted by molar mass. Activity calls are given as the source filed them. The rule behind the calls is not given here.

Assays:
Bacillus subtilis = experiment: Antibacterial activity against penicillin-susceptible Bacillus subtilis ATCC9372 by broth microdilution method; format: functional
Staphylococcus aureus [1] = experiment: Bactericidal activity against methicillin-resistant Staphylococcus aureus ATCC43300; format: functional
Staphylococcus aureus [2] = experiment: Bactericidal activity against methicillin-resistant Staphylococcus aureus ATCC43300 at 4 times of MIC measured up to 24 hrs; format: functional, organism-based; settings: time hrs <=24
Staphylococcus aureus [3] = experiment: Antibacterial activity against penicillin-resistant Staphylococcus aureus by broth microdilution method; format: functional
Staphylococcus aureus [4] = experiment: Antibacterial activity against erythromycin-susceptible Staphylococcus aureus ATCC25923 by broth microdilution method; format: functional
Staphylococcus aureus [5] = experiment: Antibacterial activity against methicillin-resistant Staphylococcus aureus ATCC43300 at 0.5 times of MIC measured up to 24 hrs by broth microdilution method; format: functional, organism-based; settings: time hrs <=24
Staphylococcus aureus [6] = experiment: Antibacterial activity against methicillin-resistant Staphylococcus aureus ATCC43300 at 1 times of MIC measured up to 9 hrs by broth microdilution method; format: functional, organism-based; settings: time hrs <=9
Enterococcus faecium = experiment: Antibacterial activity against clinical isolate erythromycin-resistant Enterococcus faecium by broth microdilution method; format: functional
Staphylococcus aureus [7] = experiment: Antibacterial activity against methicillin-resistant Staphylococcus aureus ATCC43300 by broth microdilution method; format: functional
Klebsiella pneumoniae = experiment: Antibacterial activity against Klebsiella pneumoniae ATCC10031 by broth microdilution method; format: functional
[8] = Ratio of MBC for bactericidal activity against methicillin-resistant Staphylococcus aureus ATCC43300 to MIC for antibacterial activity against methicillin-resistant Staphylococcus aureus ATCC43300 by broth microdilution method; format: functional
Enterococcus faecalis = experiment: Antibacterial activity against vancomycin-susceptible Enterococcus faecalis ATCC29212 by broth microdilution method; format: functional
Staphylococcus aureus [9] = experiment: Bactericidal activity against methicillin-resistant Staphylococcus aureus ATCC43300 at 2 times of MIC measured up to 24 hrs; format: functional, organism-based; settings: time hrs <=24

SMILES	MIC (Bacillus subtilis)	MBC (Staphylococcus aureus [1])	inhibition (Staphylococcus aureus [2])	MIC (Staphylococcus aureus [3])	MIC (Staphylococcus aureus [4])	inhibition (Staphylococcus aureus [5])	inhibition (Staphylococcus aureus [6])	MIC (Enterococcus faecium)	MIC (Staphylococcus aureus [7])	MIC (Klebsiella pneumoniae)	Ratio [8]	MIC (Enterococcus faecalis)	inhibition (Staphylococcus aureus [9])
CCCCCc1ccc(-c2cn(CC(=O)NNC(=O)O[C@H]3[C@H](C)[C@@H](O[C@@H]4O[C@H](C)C[C@H](N(C)C)[C@H]4O)[C@](C)(O)C[C@@H](C)CN(C)[C@H](C)[C@H]4OC(=O)O[C@]4(C)[C@@H](CC)OC(=O)[C@@H]3C)nn2)cc1	8 µg/mL (≈ 8.6 µM)	126 µg/mL (≈ 135 µM)	Active	16 µg/mL (≈ 17.2 µM)	8 µg/mL (≈ 8.6 µM)	inactive	Active	8 µg/mL (≈ 8.6 µM)	16 µg/mL (≈ 17.2 µM)	32 µg/mL (≈ 34.4 µM)	8	4 µg/mL (≈ 4.3 µM)	Active
CC[C@H]1OC(=O)[C@H](C)[C@@H](OC(=O)NNC(=O)Cn2cc(-c3ccc(C(C)(C)C)cc3)nn2)[C@H](C)[C@@H](O[C@@H]2O[C@H](C)C[C@H](N(C)C)[C@H]2O)[C@](C)(O)C[C@@H](C)CN(C)[C@H](C)[C@H]2OC(=O)O[C@@]21C	16 µg/mL (≈ 17.5 µM)	> 256 µg/mL	–	32 µg/mL (≈ 34.9 µM)	16 µg/mL (≈ 17.5 µM)	–	–	16 µg/mL (≈ 17.5 µM)	32 µg/mL (≈ 34.9 µM)	16 µg/mL (≈ 17.5 µM)	>8	4 µg/mL (≈ 4.37 µM)	–
